ChEMBL document CHEMBL2203061, “O-Aryl α,β-d-ribofuranosides: synthesis & highly efficient biocatalytic separation of anomers and evaluation of their Src kinase inhibitory activity” (Bioorg Med Chem, 2012)
The source made the active and inactive calls. The rule behind the calls is not given here.

The compounds below were run against T1, Proto-oncogene tyrosine-protein kinase Src (Homo sapiens, UniProt P12931) (assay: Inhibition of GST-tagged c-Src preincubated for 5 mins measured after 30 mins).
T1 sequence (P12931 2-536 limits assumed): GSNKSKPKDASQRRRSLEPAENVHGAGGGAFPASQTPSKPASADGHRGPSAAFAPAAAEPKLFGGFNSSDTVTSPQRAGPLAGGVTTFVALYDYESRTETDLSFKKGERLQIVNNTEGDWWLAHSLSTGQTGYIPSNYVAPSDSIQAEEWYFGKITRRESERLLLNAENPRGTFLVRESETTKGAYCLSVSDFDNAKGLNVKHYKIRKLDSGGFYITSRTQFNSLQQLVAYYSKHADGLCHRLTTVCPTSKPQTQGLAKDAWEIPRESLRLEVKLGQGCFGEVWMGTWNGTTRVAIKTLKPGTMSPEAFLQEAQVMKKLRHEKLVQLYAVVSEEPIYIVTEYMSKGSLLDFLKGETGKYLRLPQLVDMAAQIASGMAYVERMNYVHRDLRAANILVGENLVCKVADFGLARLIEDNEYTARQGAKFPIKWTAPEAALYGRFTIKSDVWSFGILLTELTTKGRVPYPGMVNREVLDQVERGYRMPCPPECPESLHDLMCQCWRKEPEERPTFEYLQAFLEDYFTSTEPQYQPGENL

Row | SMILES | IC50 [µM]
1 | OC[C@H]1O[C@@H](Oc2ccc3ccccc3c2)[C@H](O)[C@@H]1O | 225
2 | OC[C@H]1O[C@@H](Oc2ccc(O)cc2)[C@H](O)[C@@H]1O | 272
3 | OC[C@H]1O[C@@H](Oc2cccc3ccccc23)[C@H](O)[C@@H]1O | 1370
4 | OC[C@H]1O[C@H](Oc2ccc3ccccc3c2)[C@H](O)[C@@H]1O | 297
5 | COc1cccc(O[C@@H]2O[C@H](CO)[C@@H](O)[C@H]2O)c1 | 95
6 | COc1ccc(O[C@@H]2O[C@H](CO)[C@@H](O)[C@H]2O)cc1 | 484
7 | Cc1cccc(O[C@H]2O[C@H](CO)[C@@H](O)[C@H]2O)c1 | 451
8 | OC[C@H]1O[C@H](Oc2cccc3ccccc23)[C@H](O)[C@@H]1O | 185
9 | OC[C@H]1O[C@@H](Oc2ccc(-c3ccccc3)cc2)[C@H](O)[C@@H]1O | 125
10 | Cc1ccc(O[C@@H]2O[C@H](CO)[C@@H](O)[C@H]2O)cc1 | 143

Each compound was assayed against T1, Proto-oncogene tyrosine-protein kinase Src (assay: Inhibition of GST-tagged c-Src up to 100 uM preincubated for 5 mins measured after 30 mins).

Row | SMILES | inhibition
11 | COc1ccc(O[C@H]2O[C@H](CO)[C@@H](O)[C@H]2O)cc1 | inactive
12 | OC[C@H]1O[C@H](Oc2ccc(-c3ccccc3)cc2)[C@H](O)[C@@H]1O | inactive
13 | COc1cccc(O[C@H]2O[C@H](CO)[C@@H](O)[C@H]2O)c1 | inactive
14 | OC[C@H]1O[C@H](Oc2ccc(O)cc2)[C@H](O)[C@@H]1O | inactive
